# Where a name gives a salt, the structure may show the parent alone. Read-outs that look alike come from different tables or passages of the source.
# How the values were obtained:
# Assay type in all cases: in vivo
# [1] = system: Female CFLP mice; experiment: Anti-hyperglycaemic activity (glucose tolerance after subcutaneous glucose load); conditions: 24 h fasted mice, glucose 1 g/kg s.c. 30 min after dosing, 2 hour period, compared with water controls
# Description: Female CFLP mice, weighing approximately 25 g, were fasted for 24 hours prior to the study. The compound under study was administered orally as an aqueous solution to each of 6 mice. 30 minutes later a blood sample (10 µl) was obtained from the tail for the analysis of blood glucose. Immediately after taking this blood sample, glucose (1 g/kg body weight) was administered subcutaneously to each mouse. 6 mice were given water as a control. Blood samples were then obtained from each mouse at 30 minute intervals for 120 minutes.
# Compounds that produce a significant (P<0.05) reduction of blood glucose, compared with control mice given water, at any time interval, are considered active. The area under the blood glucose curve over the 2 hour period after the administration of the glucose was calculated for the compounds and compared with the value for control animals.
# [2] = system: Male Sprague-Dawley rats; experiment: Effect on energy expenditure of rats; conditions: Rattus norvegicus, po; for response vs control in vivo at 9.4 mg/kg: dose 9.4 mg/kg p.o.; for response vs control in vivo at 9.4 mg/kg / response vs control in vivo at 26.4 mg/kg / response vs control in vivo at 10.3 mg/kg / response vs control in vivo at 5.8 mg/kg / response vs control in vivo at 4.73 mg/kg / response vs control in vivo at 10.4 mg/kg / response vs control in vivo at 0.57 mg/kg: percentage of the rate of energy expenditure of the rats dosed with water, fasted rats; for response vs control in vivo at 26.4 mg/kg: dose 26.4 mg/kg p.o.; for response vs control in vivo at 10.3 mg/kg: dose 10.3 mg/kg p.o.; for response vs control in vivo at 5.8 mg/kg: dose 5.8 mg/kg p.o.; for response vs control in vivo at 4.73 mg/kg: dose 4.73 mg/kg p.o.; for response vs control in vivo at 10.4 mg/kg: dose 10.4 mg/kg p.o.; for response vs control in vivo at 0.57 mg/kg: dose 0.57 mg/kg p.o.
# Description: Male Sprague-Dawley rats each weighing between 170-200 g were deprived of food for 16 hours before, and during the experiment. Water was provided ab lib at all times. The compounds were administered orally in water to 3 or 4 rats. A further 4 rats were dosed orally with water. The rats were placed in boxes through which air was drawn and the oxygen content of the air leaving the boxes was measured. The energy expenditure of the rats was calculated for 3 hours and for 21 hours after dosing from the volume of air leaving the boxes and its oxygen content, following the pinciples described by J. B. de V. Weir, J. Physiol. (London) 109, 1-9 (1949). The results are expressed as a percentage of the rate of energy expenditure of the rats dosed with water.
# [3] = system: Female BALB/c mice; experiment: Anti-obesity activity (weight of parametrial fat pads); conditions: 5.8 mg/kg of diet, added to the diet for 3 days, treated animals compared with controls, mean of 9 values
# Description: Female BALB/c mice were trained to feed on powdered oxoid for 1 week. They were then housed in threes and the compound under study was added to the diet for 3 days. Food was removed at 09.00h and the mice were killed at 11.00h. The parmetrial fat pads were weighed as pairs. The result is a mean of 9 values.
# The compound of Example Number 3 gave a 38% reduction in weight of perigenital adipose tissue in. treated animals compared with controls when given at a dose of 5.8 mg/kg of diet.
# [4] = 3 h, read-out: Mean Energy Expenditure (0—3h)
# [5] = 21 h, read-out: Mean Energy Expenditure (9—21h)
structure (smiles),measurement,setting,value
"CNC(=O)COc1ccc(C[C@@H](C)N(C[C@H](O)c2ccccc2)C[C@H](O)c2ccccc2)cc1.Cl [Example 6, N-Methyl 4-[(R)-2-[bis-[(R)-β-hydroxyphenethyl]amino]propyl]phenoxyacetamide hydrochloride]",% Reduction in area under Blood Glucose Curve,[1]; dose 2.5 µmol/kg orally,52%
same,response vs control in vivo at 10 mg/kg,[2]; [4],154%
same,response vs control in vivo at 10 mg/kg,[2]; [5],147%
"C[C@H](Cc1ccc(OCCO)cc1)N(C[C@H](O)c1ccccc1)C[C@H](O)c1ccccc1 [Example 5, 4-[(R)-2-[bis-[(R)-β-hydroxyphenethyl]amino]propyl]phenoxyethanol hydrochloride]",% Reduction in area under Blood Glucose Curve,[1]; dose 2.5 µmol/kg orally,54%
same,response vs control in vivo at 9.4 mg/kg,[2]; [4],159%
same,response vs control in vivo at 9.4 mg/kg,[2]; [5],152%
"CCOC(=O)COc1ccc(CC[C@@H](C)N(C[C@H](O)c2ccccc2)C[C@H](O)c2ccccc2)cc1.Cl [Example 4, Ethyl 4-[(R)-3-[bis-[(R)-β-hydroxyphenethyl]amino]butyl]phenoxyacetate hydrochloride]",% Reduction in area under Blood Glucose Curve,[1]; dose 12.5 µmol/kg orally,42%
same,response vs control in vivo at 26.4 mg/kg,[2]; [4],111%
same,response vs control in vivo at 26.4 mg/kg,[2]; [5],99%
"CCOC(=O)COc1ccc(C[C@@H](C)N(C[C@H](O)c2ccccc2)C[C@H](O)c2ccccc2)cc1.Cl [Example 2, Ethyl 4-[(R)-2-[bis-[(R)-β-hydroxyphenethyl]amino]propyl]phenoxyacetate hydrochloride]",% Reduction in area under Blood Glucose Curve,[1]; dose 2.5 µmol/kg orally,52%
same,response vs control in vivo at 10.3 mg/kg,[2]; [4],146%
same,response vs control in vivo at 10.3 mg/kg,[2]; [5],143%
"CCOC(=O)COc1ccc(C[C@@H](C)N(C[C@H](O)c2cccc(Cl)c2)C[C@H](O)c2cccc(Cl)c2)cc1.Cl [Example 3, Ethyl 4-[(R)-2-[bis-[(R)-β-hydroxy-3-chlorophenethyl]amino]propyl]phenoxyacetate hydrochloride]",reduction in weight of perigenital adipose tissue,[3],38%
same,response vs control in vivo at 5.8 mg/kg,[2]; [4],144%
same,response vs control in vivo at 5.8 mg/kg,[2]; [5],132%
"C[C@H](COc1ccc(OCC(N)=O)cc1)N(C[C@H](O)c1ccccc1)C[C@H](O)c1ccccc1 [Example 8, 4-[(R)-2-[bis-[(R)-β-hydroxyphenethyl]amino]propoxy]phenoxyacetamide hydrochloride]",response vs control in vivo at 4.73 mg/kg,[2]; [4],113%
same,response vs control in vivo at 4.73 mg/kg,[2]; [5],103%
"CNCCOc1ccc(C[C@@H](C)N(C[C@H](O)c2ccccc2)C[C@H](O)c2ccccc2)cc1 [Example 7, N-Methyl 4-[(R)-2-[bis-[(R)-β-hydroxyphenethyl]amino]propyl]phenoxy ethylamine dihydrochloride]",% Reduction in area under Blood Glucose Curve,[1]; dose 2.5 µmol/kg orally,50%
same,response vs control in vivo at 10.4 mg/kg,[2]; [4],145%
same,response vs control in vivo at 10.4 mg/kg,[2]; [5],146%
"COC(=O)COc1ccc(CC(C)N(CC(O)c2cccc(Cl)c2)CC(O)c2cccc(Cl)c2)cc1.Cl.O (stereo not drawn) [Example 1, Methyl 4-[2-[bis-[β-hydroxy-3-chlorophenethyl]amino]propyl]phenoxyacetate hydrochloride monohydrate]",% Reduction in area under Blood Glucose Curve,[1]; dose 5 µmol/kg orally,55%
same,response vs control in vivo at 0.57 mg/kg,[2]; [4],132%
same,response vs control in vivo at 0.57 mg/kg,[2]; [5],110%
